These results are taken from BindingDB's records for PubMed 8627566 (Hoechst Marion Roussel, 1996).

Starred links: 1 amine or outer side, 2 acyl side, 3 side chain; linkers in the order of their positions; H or OH if unused. Positions of bridges follow the written chain, without caps; N, C: chain ends. Non-standard residues stand in square brackets, D forms with d. Residues, ends and D or L forms follow the SMILES beside them. *: point of attachment. X2 = CN(C(=Cc1ccc(O)cc1)C(=O)[*:2])[*:1]; X1 = CCCCCc1ccccc1CCC(=O)*

Test [1] concerns the target T1, Substance-K receptor (Homo sapiens, UniProt P21452).
T1 sequence (P21452 whole entry): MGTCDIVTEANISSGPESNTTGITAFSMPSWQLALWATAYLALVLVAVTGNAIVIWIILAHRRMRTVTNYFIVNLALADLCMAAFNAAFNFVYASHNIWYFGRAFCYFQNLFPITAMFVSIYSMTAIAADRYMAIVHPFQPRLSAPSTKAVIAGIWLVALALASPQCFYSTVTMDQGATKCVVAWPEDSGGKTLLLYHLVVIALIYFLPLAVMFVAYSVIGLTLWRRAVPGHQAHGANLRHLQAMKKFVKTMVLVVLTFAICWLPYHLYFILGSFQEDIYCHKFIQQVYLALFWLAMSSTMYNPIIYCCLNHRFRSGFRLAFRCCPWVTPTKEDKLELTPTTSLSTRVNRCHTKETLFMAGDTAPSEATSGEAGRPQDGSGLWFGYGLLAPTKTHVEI

The target in a further test is T2, Neuromedin-K receptor (Cavia porcellus, UniProt P30098).
T2 sequence (P30098 whole entry): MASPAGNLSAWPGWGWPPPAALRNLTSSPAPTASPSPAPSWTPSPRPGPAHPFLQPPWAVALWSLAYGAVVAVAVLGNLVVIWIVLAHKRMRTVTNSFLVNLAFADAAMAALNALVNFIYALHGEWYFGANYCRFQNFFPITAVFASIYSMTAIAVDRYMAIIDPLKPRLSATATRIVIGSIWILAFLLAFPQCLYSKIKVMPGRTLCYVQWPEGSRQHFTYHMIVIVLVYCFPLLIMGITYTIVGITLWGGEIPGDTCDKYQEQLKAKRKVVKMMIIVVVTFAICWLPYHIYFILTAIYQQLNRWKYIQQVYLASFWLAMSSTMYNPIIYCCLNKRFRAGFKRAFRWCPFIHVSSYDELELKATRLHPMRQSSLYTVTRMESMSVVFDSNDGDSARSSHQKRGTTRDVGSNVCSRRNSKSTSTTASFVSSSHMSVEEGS

Test [2] concerns the target Substance-P receptor (Rattus norvegicus, UniProt P14600).
The target in test [3] is Substance-P receptor (Homo sapiens, UniProt P25103).
Sequence of Substance-P receptor (Homo sapiens, UniProt P25103) (P25103 whole entry): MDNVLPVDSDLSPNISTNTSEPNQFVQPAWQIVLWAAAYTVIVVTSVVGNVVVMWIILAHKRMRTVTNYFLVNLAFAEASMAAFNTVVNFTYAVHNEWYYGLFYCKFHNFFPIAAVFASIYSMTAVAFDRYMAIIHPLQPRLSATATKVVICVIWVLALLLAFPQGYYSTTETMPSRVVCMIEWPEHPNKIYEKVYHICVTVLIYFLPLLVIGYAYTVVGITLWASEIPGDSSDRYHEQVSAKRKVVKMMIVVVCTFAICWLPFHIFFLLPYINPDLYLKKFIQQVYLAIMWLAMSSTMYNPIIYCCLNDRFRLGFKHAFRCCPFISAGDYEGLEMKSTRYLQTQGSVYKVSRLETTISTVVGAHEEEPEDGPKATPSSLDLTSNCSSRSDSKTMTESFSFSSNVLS
For test [4], the target named is Substance-P receptor (Cavia porcellus, UniProt P30547).
Sequence of Substance-P receptor (Cavia porcellus, UniProt P30547) (P30547 whole entry): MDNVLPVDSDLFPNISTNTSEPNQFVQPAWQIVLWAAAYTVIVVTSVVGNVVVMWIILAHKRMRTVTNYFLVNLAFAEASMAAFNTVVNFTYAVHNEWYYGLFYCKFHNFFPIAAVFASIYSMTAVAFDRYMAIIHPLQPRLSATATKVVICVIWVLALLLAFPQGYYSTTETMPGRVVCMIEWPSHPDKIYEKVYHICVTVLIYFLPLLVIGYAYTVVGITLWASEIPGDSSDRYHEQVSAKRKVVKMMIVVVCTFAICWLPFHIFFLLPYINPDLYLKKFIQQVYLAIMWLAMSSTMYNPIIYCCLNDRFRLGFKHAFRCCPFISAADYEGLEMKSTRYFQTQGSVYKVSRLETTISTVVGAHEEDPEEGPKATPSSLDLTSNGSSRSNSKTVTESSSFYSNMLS
Test [5] concerns the target T3, Substance-K receptor (Mesocricetus auratus, UniProt P51144).
T3 sequence (P51144 whole entry): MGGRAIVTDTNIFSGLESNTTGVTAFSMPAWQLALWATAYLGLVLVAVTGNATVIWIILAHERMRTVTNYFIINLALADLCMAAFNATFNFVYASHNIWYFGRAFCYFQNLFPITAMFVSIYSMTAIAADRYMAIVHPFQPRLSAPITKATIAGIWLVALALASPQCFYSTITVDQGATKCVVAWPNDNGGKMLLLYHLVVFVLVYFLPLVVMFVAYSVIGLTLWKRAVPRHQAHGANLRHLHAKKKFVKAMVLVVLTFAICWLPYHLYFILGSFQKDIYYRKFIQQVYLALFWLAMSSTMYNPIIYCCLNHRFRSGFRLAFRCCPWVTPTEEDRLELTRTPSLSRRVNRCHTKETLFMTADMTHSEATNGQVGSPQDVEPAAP

Test [6] deals with T4, Substance-K receptor (Bos taurus, UniProt P05363).
T4 sequence (P05363 whole entry): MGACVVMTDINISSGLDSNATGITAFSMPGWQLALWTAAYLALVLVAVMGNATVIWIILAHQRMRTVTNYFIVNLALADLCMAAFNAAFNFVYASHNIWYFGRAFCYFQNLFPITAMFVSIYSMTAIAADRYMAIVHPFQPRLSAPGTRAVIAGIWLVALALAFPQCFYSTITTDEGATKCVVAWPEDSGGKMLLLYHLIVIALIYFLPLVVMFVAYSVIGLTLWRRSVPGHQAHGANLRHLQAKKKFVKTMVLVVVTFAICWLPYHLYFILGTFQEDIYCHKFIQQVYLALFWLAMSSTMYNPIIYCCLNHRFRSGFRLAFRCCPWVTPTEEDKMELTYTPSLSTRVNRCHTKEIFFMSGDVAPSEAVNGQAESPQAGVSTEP

Broadly, the Ki is a dissociation constant, usually derived from enzyme kinetics or from competition with a known ligand.

Sequence of Substance-P receptor (Rattus norvegicus, UniProt P14600) (P14600 whole entry): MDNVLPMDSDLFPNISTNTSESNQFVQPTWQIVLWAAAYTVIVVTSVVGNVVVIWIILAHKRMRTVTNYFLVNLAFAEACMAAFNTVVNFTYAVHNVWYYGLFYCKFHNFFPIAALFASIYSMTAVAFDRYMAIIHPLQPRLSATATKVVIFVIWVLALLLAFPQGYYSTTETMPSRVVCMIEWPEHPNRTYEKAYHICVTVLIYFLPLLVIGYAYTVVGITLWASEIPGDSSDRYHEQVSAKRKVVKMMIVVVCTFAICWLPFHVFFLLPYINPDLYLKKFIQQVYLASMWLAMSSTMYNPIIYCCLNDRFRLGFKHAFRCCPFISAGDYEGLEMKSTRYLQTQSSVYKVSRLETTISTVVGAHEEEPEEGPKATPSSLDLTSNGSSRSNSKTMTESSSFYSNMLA

Regarding `COc1ccccc1CN[C@H]1C2CCN(CC2)[C@H]1C(c1ccccc1)c1ccccc1`, the Ki at Substance-K receptor [1] and at Neuromedin-K receptor was over 10000 nM in each case.

For the compound `COc1cc(C(=O)N2CC[C@@](CCN3CCC(C(N)=O)(c4ccccc4)CC3)(c3ccc(Cl)c(Cl)c3)C2)cc(OC)c1OC`, the Ki stood at 408 nM at Substance-P receptor [2]; 3.11 nM at Substance-P receptor [3]; 8.4 nM on Substance-K receptor [1]; 2.12 nM on Substance-P receptor [4]; 6.98 nM at Substance-K receptor [5]; 8.49 nM at Substance-K receptor [6]. On Neuromedin-K receptor, this compound yielded a Ki of 21 nM.

On to `COc1cc(C(=O)N2CC[C@](CCN3CCC(C(N)=O)(c4ccccc4)CC3)(c3ccc(Cl)c(Cl)c3)C2)cc(OC)c1OC`, for which the Ki on Substance-P receptor [3] came to 7.07 nM; on Substance-K receptor [1], 21 nM; on Substance-P receptor [4], 5.88 nM; at Neuromedin-K receptor, 54.3 nM.

For the compound `COc1cc(C(=O)N2CC[C@](CCN3CCC(C(N)=O)(c4ccccc4)CC3)(c3ccc(Cl)c(Cl)c3)C2)cc(OC)c1OC` [1-{2-[(R)-3-(3,4-Dichloro-phenyl)-1-(3,4,5-trimethoxy-benzoyl)-pyrrolidin-3-yl]-ethyl}-4-phenyl-piperidine-4-carboxylic acid amide], the Ki on Substance-P receptor [2] is 2200 nM; on Substance-P receptor [3] it was 160 nM; on Substance-K receptor [1], 760 nM; at Substance-P receptor [4] it was 183 nM; on Substance-K receptor [5] it was 711 nM; on Substance-K receptor [6], 207 nM. The same compound yielded a Ki on Neuromedin-K receptor of 2310 nM.

With `CCCCCc1ccccc1CCC(=O)NC1C(=O)N(C)C(=Cc2ccc(O)cc2)C(=O)NC(CC(C)C)C(=O)NC(Cc2ccccc2)C(=O)NC(C(C)O)C(=O)NC(CC(N)=O)C(=O)NC(CO)C(=O)OC1C` (stereo not given) [CAS_6437864] (X1-T[X2]LFTNS; ester 1-C; configuration not given here), the Ki is 228 nM at Substance-P receptor [2]; 215 nM at Substance-P receptor [3]; 434 nM at Substance-K receptor [1]; 98.7 nM at Substance-P receptor [4]; 3590 nM on Substance-K receptor [5]; 311 nM on Substance-K receptor [6]. For the same compound, affinity at Neuromedin-K receptor was put at a Ki of 3550 nM.

Turning to `CN(Cc1ccccc1)C(=O)[C@@H](Cc1ccc2ccccc2c1)NC(=O)C1C[C@@H](O)CN1C(=O)c1cn(C)c2ccccc12` (stereo not given in full) [FK 888], the Ki at Substance-P receptor [2] was found to be 2070 nM; on Substance-P receptor [3], 1.49 nM; at Substance-K receptor [1] it was 1520 nM; on Substance-P receptor [4], 3.13 nM; on Neuromedin-K receptor it was 5620 nM.

For `COc1cc(C(=O)N2CC[C@@](CCN3CCC(C(N)=O)(c4ccccc4)CC3)(c3ccc(Cl)c(Cl)c3)C2)cc(OC)c1OC` [MDL 105,212A (R)-enantiomer], the Ki at Substance-P receptor [3] amounted to 3.69 nM; at Substance-K receptor [1], 7.93 nM; on Substance-P receptor [4], 2.99 nM; at Substance-K receptor [6] it was 8.4 nM.

At Substance-K receptor [5], `CSCC[C@H](NC(=O)[C@H](CC(C)C)NC(=O)CNC(=O)[C@@H](NC(=O)[C@H](Cc1ccccc1)NC(=O)[C@H](CO)NC(=O)[C@H](CC(=O)O)NC(=O)[C@@H](NC(=O)[C@H](CCCCN)NC(=O)[C@@H](N)Cc1cnc[nH]1)[C@@H](C)O)C(C)C)C(N)=O` [Neurokinin alpha] displayed a Ki of 1.8 nM.

Consider `COc1ccccc1CC(=N)N1C[C@@H]2C(=O)CCC(c3ccccc3)(c3ccccc3)[C@@H]2C1` [RP-67580], for which the results for the Ki at Substance-P receptor [2] and on Substance-P receptor [4] were 8.29 nM and 36 nM, respectively.

With `CC(=O)NC1(c2ccccc2)CCN(CCC(CN(C)C(=O)c2ccccc2)c2ccc(Cl)c(Cl)c2)CC1` (stereo not given) [SR 48968], the Ki turned out to be 593 nM on Substance-P receptor [3]; 0.44 nM at Substance-K receptor [1]; 217 nM at Substance-P receptor [4]; 7.32 nM at Substance-K receptor [5]; 0.71 nM on Substance-K receptor [6]; 208 nM on Neuromedin-K receptor.
